Laboratory results from patent US9082528B2, “Method for making carbon nanotube-loaded electrode, carbon nanotube-loaded electrode made by the method, and applications thereof” (priority 2011, dated 2015).

Test system: acetylcholine esterase (AChE)
Assay: Electrochemical (CV) inhibition of AChE activity on AChE/ChO/POD/CNT/DEN(PtNP)s-loaded SPCGC electrode
Type: biochemical
Settings: for I x/Io: anodic peak current, 10 mM phosphate buffer pH 7.4 with ACh
Description: AChE, ChO and POD enzymes were adsorbed on CNT/DEN(PtNP)s-loaded SPCGC electrode. The aqueous solution containing AChE/ChO/POD was dropped on the CNT/DEN(PtNP)s-loaded SPCGC surface and the adsorption was allowed to occur for 24 hours. The AChE-ChO-POD-adsorbed CNT/DEN(PtNP)s-loaded (AChE/ChO/POD/CNT/DEN(PtNP)s-loaded) SPCGC DEP chip was stored at 4° C. till use.
Electrochemical detection of a DZN compound on the AChE/ChO/POD/CNT/DEN(PtNP)s-loaded SPCGC electrode was performed on a CV (a Hokuto-Denko HZ-3000) apparatus in the potential range of −0.6 to 1 V at a scan rate of 20 mVs^−1 in a phosphate buffer solution. All the measurements were carried out at room temperature in 2 cm^3 of a test solution, which has to cover the circular working electrode area of the sensors supported vertically during the CV measurement. The anodic oxidation peak at 0.06-0.1 V was used to evaluate the inhibition of AChE activity by DZN. The enzyme inhibition was calculated according to the following equation (Equation 1) (Dounin et al., Analytica Chimica Acta 2010, 669, 63-67): % inhibition=100(Io−Ix)/Io [Equation 1], wherein Io is the anodic peak current of oxidation at 0.06-0.1 V of a control sample in the absence of DZN, while Ix refers to the peak current of DZN-containing samples.
For the electrochemical detection of DZN compound, CNT/DEN(PtNP)s hybrids at M:D 0.4:1 was fabricated onto the SPCGC electrode. Then, an AChE/ChO/POD/CNT/DEN(PtNP)s-loaded SPCGC biosensor was developed by loading 10 mm^3 of 2.21 U of AChE, 4.3 U of ChO and 44.7 U of POD on the CNT/DEN(PtNP)s-loaded SPCGC electrode. The bioactivity of the AChE/ChO/POD/CNT/DEN(PtNP)s-loaded SPCGC biosensor was investigated by CV at room temperature.
The approach for determination of one (DZN) of organophosphate pesticides by this biosensor is based on the inhibition of AChE activity. In the absence of DZN, AChE hydrolyzes Ach to acetic acid and choline (Ch) (Lin et al., Electroanalysis, 2004, 16(1-2), 145-149):
The inhibition of AChE activity by DZN was determined by measuring the oxidation or reduction current of H2O2 which is correlated to the concentration of Ch produced by AChE.
This anodic oxidation peak is attributed to the oxidation of hydrogen peroxide (H2O2) generated from the enzymatic reaction of AChE and ChO. The peak potential of H2O2 oxidation by the present electrode was lower than by an AChE/ChO/CNT electrode (0.50 V) (Lin et al., Electroanalysis, 2004, 16(1-2), 145-149). […] Meanwhile, a very small reduction peak around −0.2 V was also observed at only the first CV scan. This peak is attributed to the reduction of the generated H2O2 by POD. […] Therefore, the inhibition of AChE by DZN can be determined by the decrease in the oxidation current at 0.09 V.
The obtained currents of anodic oxidation peak were utilized to evaluate the enzyme activity, […], and the inhibition value, (Io−Ix)/Io, where Io and Ix are current densities in ACh solutions without and with DZN.

Structure (SMILES): CCOP(=S)(OCC)Oc1cc(C)nc(C(C)C)n1 [DZN, O,O-diethyl 0-2-isopropyl-6-methyl(pyrimidine-4-yl)phosphorothioate]
- % Enzyme Activity (DZN 0.05 ppm): 78.6%
- % Inhibition (DZN 0.05 ppm): 21.4%
- [Io-Ix]/Io (DZN 0.05 ppm): 0.214
- I x/Io (DZN 0.05 ppm): 0.785
- % Enzyme Activity (DZN 0.1 ppm): 59.1%
- % Inhibition (DZN 0.1 ppm): 40.9%
- [Io-Ix]/Io (DZN 0.1 ppm): 0.409
- I x/Io (DZN 0.1 ppm): 0.590
- % Enzyme Activity (DZN 0.5 ppm): 52.5%
- % Inhibition (DZN 0.5 ppm): 47.6%
- [Io-Ix]/Io (DZN 0.5 ppm): 0.475
- I x/Io (DZN 0.5 ppm): 0.524
- % Enzyme Activity (DZN 1 ppm): 17.2%
- % Inhibition (DZN 1 ppm): 82.8%
- [Io-Ix]/Io (DZN 1 ppm): 0.828
- I x/Io (DZN 1 ppm): 0.171
- % Enzyme Activity (DZN 5 ppm): 23.2%
- % Inhibition (DZN 5 ppm): 76.8%
- [Io-Ix]/Io (DZN 5 ppm): 0.768
- I x/Io (DZN 5 ppm): 0.231
- % Enzyme Activity (DZN 10 ppm): 13.4%
- % Inhibition (DZN 10 ppm): 86.6%
- [Io-Ix]/Io (DZN 10 ppm): 0.866
- I x/Io (DZN 10 ppm): 0.133
